From patent US20220202322A1, “DRUG RELEASE COMPOSITIONS AND METHODS FOR DELIVERY” (ABBOTT DIABETES CARE INC., priority 2020, published 2022)
Values after ≈ are worked out from the molar mass of the structure shown.

Experiment: physchem
Format: physicochemical
Conditions: water
Description: Conjugating dexamethasone to a water-soluble polymer makes dexamethasone water soluble, which allows for more consistent dispensing. […] As further shown in FIG. 22D, dispensing of the solution of 18 without a crosslinking agent (left panel) and with a crosslinking agent (right panel) was consistent and performed without difficulty.

solubility: 50 µg/mL (≈ 127 µM)
Structure (SMILES): C[C@@H]1C[C@H]2[C@@H]3CCC4=CC(=O)C=C[C@]4(C)[C@@]3(F)[C@@H](O)C[C@]2(C)[C@@]1(O)C(=O)CO [dexamethasone]
